Reference: patent publication US9273092B2, “Selective binding compounds” (RIOGIN Corporation, priority 2011, dated 2016)

Molecular target: hSA (Homo sapiens, UniProt P02768)
Assay: hSA binding assay (hSA-coated microtiter plate, streptavidin-polyHRP/ABTS, OD 405 nm)
Conditions: for Bmax: given only for compounds with an Exp 2 value
Protocol: hSA binding assay. Microtiter 96 well plate is coated, overnight at 4° C., using […] of a solution of hSA in PBS ([…]). Plate is washed with PBS and blocked, for 1 hours, using 150 ml, per well, of a 10% solution of Tween 20 in water. After 1 hour the wells are washed with PBS. The hSA binders tested are dissolved in PBS, 100 ml of the tested solutions are then added in the well and incubated for 2 hours. After 2 hours, the solution are discarded and the wells are washed using PBS, 0.1% Tween 20. 100 ml of a solution of streptavidin-polyHRP in PBS 1.375% casein is added to the wells and incubated for 1 more hours. Finally wells are washed with PBS, 0.1% Tween 20, and 100 ml ABTS in phosphate-citrate buffer with sodium perborate is added. After a few minutes OD are read at 405 nm.
A plurality of compounds according to the invention were prepared. All of the compounds contained the Cys-Pro-Cys moiety. These compounds and an assay control were tested using the above procedure. Some compounds were tested twice (Exp 1 and Exp 2).

hSA, sequence (P02768 25-609): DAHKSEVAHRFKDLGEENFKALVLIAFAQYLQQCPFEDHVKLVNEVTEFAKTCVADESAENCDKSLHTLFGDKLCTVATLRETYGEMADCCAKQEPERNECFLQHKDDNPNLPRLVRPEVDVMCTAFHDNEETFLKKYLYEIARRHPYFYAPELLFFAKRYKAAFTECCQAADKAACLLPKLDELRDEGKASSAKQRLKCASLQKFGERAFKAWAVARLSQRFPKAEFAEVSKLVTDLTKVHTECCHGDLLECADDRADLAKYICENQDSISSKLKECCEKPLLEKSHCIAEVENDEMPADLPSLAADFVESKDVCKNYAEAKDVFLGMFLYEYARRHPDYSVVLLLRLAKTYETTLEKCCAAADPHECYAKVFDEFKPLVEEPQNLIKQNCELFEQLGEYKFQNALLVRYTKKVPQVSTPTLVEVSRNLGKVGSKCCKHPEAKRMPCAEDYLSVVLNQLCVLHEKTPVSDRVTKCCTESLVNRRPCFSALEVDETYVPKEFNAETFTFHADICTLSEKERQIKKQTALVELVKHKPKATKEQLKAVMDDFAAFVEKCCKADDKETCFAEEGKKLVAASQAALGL

| Sequence | Binding, Exp 1 | Binding, Exp 2 | Bmax |
| --- | --- | --- | --- |
| KLIEDFCPCLW [Compound 44, KLIEDF-LW, "-" represents cysteine-proline-cysteine] | 0.1836 | – | – |
| RFIEDICPCLW [Compound 8, RFIEDI-LW, "-" represents cysteine-proline-cysteine] | 0.04142 | 0.1971 | 1.136 |
| RQIEDICPCLW [Compound 2, RQIEDI-LW, "-" represents cysteine-proline-cysteine] | 0.02306 | 0.2243 | 1.232 |
| RLIQICPCLW [Compound 97, RLIQI-LW, "-" represents cysteine-proline-cysteine] | – | 0.1909 | 0.8584 |
| KLIEDICPCLQ [Compound 42, KLIEDI-LQ, "-" represents cysteine-proline-cysteine] | 0.1651 | – | – |
| RLEEDICPCLW [Compound 17, RLEEDI-LW, "-" represents cysteine-proline-cysteine] | 0.0625 | – | – |
| RLIEDACPCLW [Compound 38, RLIEDA-LW, "-" represents cysteine-proline-cysteine] | 0.1522 | – | – |
| KQIEDICPCLW [Compound 47, KQIEDI-LW, "-" represents cysteine-proline-cysteine] | 0.2411 | 0.581 | 1.4 |
| RLIADICPCLW [Compound 4, RLIADI-LW, "-" represents cysteine-proline-cysteine] | 0.03473 | 0.1216 | 1.036 |
| KIIEDICPCLW [Compound 62, KIIEDI-LW, "-" represents cysteine-proline-cysteine] | 1.415 | 0.2342 | 0.8075 |
| RLIEVICPCLW [Compound 37, RLIEVI-LW, "-" represents cysteine-proline-cysteine] | 0.1503 | – | – |
| RLIEDICPCLW [Compound 50, RLIEDI-LW, "-" represents cysteine-proline-cysteine] | 0.2855 | 0.3359 | 1.14 |
| RLIENICPCLW [Compound 14, RLIENI-LW, "-" represents cysteine-proline-cysteine] | 0.05331 | – | – |
| RLIKDICPCLW [Compound 36, RLIKDI-LW, "-" represents cysteine-proline-cysteine] | 0.1404 | – | – |
| RLIQDICPCLW [Compound 18, RLIQDI-LW, "-" represents cysteine-proline-cysteine] | 0.06261 | – | – |
| KLIEDICPCLH [Compound 23, KLIEDI-LH, "-" represents cysteine-proline-cysteine] | 0.07161 | – | – |
| RLIEDICPCLK [Compound 66, RLIEDI-LK, "-" represents cysteine-proline-cysteine] | 6.227 | – | – |
| KLIEDACPCLW [Compound 39, KLIEDA-LW, "-" represents cysteine-proline-cysteine] | 0.153 | – | – |
| KLQEDICPCLW [Compound 31, KLQEDI-LW, "-" represents cysteine-proline-cysteine] | 0.1033 | – | – |
| RLIEDICPCAW [Compound 59, RLIEDI-AW, "-" represents cysteine-proline-cysteine] | 1.031 | – | – |
| KFIEDICPCLW [Compound 13, KFIEDI-LW, "-" represents cysteine-proline-cysteine] | 0.04979 | 0.4961 | 1.198 |
| LKIKDICPCLW [Compound 94, LKIKDI-LW, "-" represents cysteine-proline-cysteine] | – | 0.2987 | 1.253 |
| KLIEDECPCLW [Compound 11, KLIEDE-LW, "-" represents cysteine-proline-cysteine] | 0.04808 | – | – |
| KLISDICPCLW [Compound 3, KLISDI-LW, "-" represents cysteine-proline-cysteine] | 0.02504 | – | – |
| KLIYDICPCLW [Compound 29, KLIYDI-LW, "-" represents cysteine-proline-cysteine] | 0.1014 | 0.09262 | 0.7912 |

| Sequence | Binding, Exp 1 | Binding, Exp 2 | Bmax |
| --- | --- | --- | --- |
| RLIEDICPCTW [Compound 32, RLIEDI-TW, "-" represents cysteine-proline-cysteine] | 0.1126 | – | – |
| RLIDDICPCLW [Compound 6, RLIDDI-LW, "-" represents cysteine-proline-cysteine] | 0.03897 | 0.2179 | 1.256 |
| KLIEDICPCLW [Compound 26, KLIEDI-LW, "-" represents cysteine-proline-cysteine] | 0.08742 | – | – |
| KLIQDICPCLW [Compound 51, KLIQDI-LW, "-" represents cysteine-proline-cysteine] | 0.3066 | 0.1771 | 1.048 |
| RLIEDICPCLQ [Compound 65, RLIEDI-LQ, "-" represents cysteine-proline-cysteine] | 5.789 | – | – |
| KLTEDICPCLW [Compound 24, KLTEDI-LW, "-" represents cysteine-proline-cysteine] | 0.07352 | – | – |
| KLFEDICPCLW [Compound 33, KLFEDI-LW, "-" represents cysteine-proline-cysteine] | 0.1213 | – | – |
| RIIEDICPCLW [Compound 40, RIIEDI-LW, "-" represents cysteine-proline-cysteine] | 0.1632 | 0.1166 | 0.6826 |
| KLIDDICPCLW [Compound 34, KLIDDI-LW, "-" represents cysteine-proline-cysteine] | 0.1237 | – | – |
| RLIEDVCPCLW [Compound 54, RLIEDV-LW, "-" represents cysteine-proline-cysteine] | 0.3336 | – | – |
| RTIEDICPCLW [Compound 99, RTIEDI-LW, "-" represents cysteine-proline-cysteine] | – | 0.1598 | 0.6151 |
| RLIEDICPCLV [Compound 43, RLIEDI-LV, "-" represents cysteine-proline-cysteine] | 0.1701 | – | – |
| KLVEDICPCLW [Compound 41, KLVEDI-LW, "-" represents cysteine-proline-cysteine] | 0.1635 | – | – |
| KLIEDVCPCLW [Compound 56, KLIEDV-LW, "-" represents cysteine-proline-cysteine] | 0.5311 | – | – |
| RLIEDICPCVW [Compound 52, RLIEDI-VW, "-" represents cysteine-proline-cysteine] | 0.3108 | – | – |
| KLIADICPCLW [Compound 46, KLIADI-LW, "-" represents cysteine-proline-cysteine] | 0.2126 | 0.1074 | 1.077 |
| KLIEDICPCAW [Compound 25, KLIEDI-AW, "-" represents cysteine-proline-cysteine] | 0.08281 | – | – |
| RLIEDTCPCLW [Compound 27, RLIEDT-LW, "-" represents cysteine-proline-cysteine] | 0.08956 | – | – |
| RLIEDICPCQW [Compound 60, RLIEDI-QW, "-" represents cysteine-proline-cysteine] | 1.193 | – | – |
| RLTEDICPCLW [Compound 7, RLTEDI-LW, "-" represents cysteine-proline-cysteine] | 0.03902 | – | – |
| RLVEDICPCLW [Compound 20, RLVEDI-LW, "-" represents cysteine-proline-cysteine] | 0.06407 | – | – |
| KLIVDICPCLW [Compound 95, KLIVDI-LW, "-" represents cysteine-proline-cysteine] | – | 0.1395 | 1.19 |
| RLIVDICPCLW [Compound 12, RLIVDI-LW, "-" represents cysteine-proline-cysteine] | 0.04895 | 0.2036 | 1.002 |
| REIEDICPCLW [Compound 96, REIEDI-LW, "-" represents cysteine-proline-cysteine] | – | 0.2479 | 0.8746 |
